From a melting point compilation (Tetko et al.)

SMILES	melting point [°C]
O=Cc1cc(O)ccc1I	125 to 126
COc1ccc(C(O)(c2ccccc2OC)c2ccc(OC)cc2OC)c(OC)c1	137
COC(=O)c1cc2ccccc2s1	70
O=C(C1=NN(c2ccccc2)C2C(=O)N(c3ccc(F)cc3)C(=O)C12)c1ccccc1 (stereo unspecified)	211
CCCCCCCCCCCCCCCCCCCCCO	68 to 71
C[P+]([O-])(CCCCN1C(=O)c2ccccc2C1=O)OCCCCN1C(=O)c2ccccc2C1=O (stereo unspecified)	114
O=C(O)c1ccccc1CCc1ccccc1	127 to 132
CSc1cc(-c2ccc3ccccc3c2)c2c(=O)n(-c3ccccc3)n(C)c2c1	179
O=C(OC1CCCCC1)c1ccccc1C(=O)OC1CCCCC1	66
COc1nn(CSP(=S)(OC)OC)c(=O)s1	39.5
c1ccc2c3c([nH]c2c1)CCCCC3	145
CN1c2ccccc2Sc2ccc(CC(=O)O)cc21	146
BrCc1cccc(-c2ccsc2)c1	70
COC(=O)c1sc(C(F)(F)F)c(-c2ccccc2)c1S(=O)(=O)Cl	74 to 75
O=[N+]([O-])c1ccc(/C(Cl)=C\c2cccc(/C=C(/Cl)c3ccc([N+](=O)[O-])cc3[N+](=O)[O-])c2)c([N+](=O)[O-])c1	215
C=C1CCC2OC2(C)CCC2C1CC2(C)C (single isomer, unassigned; (-))	62.5
COc1cc2c(c(O)c1OC)C(C)NCC2 (stereo unspecified)	160
Cc1c(Cl)cccc1Nc1ncccc1C(=O)O	234
CNC(=O)Oc1cc(C)cc(C(C)C)c1	87
CC(=O)c1ccc(F)cc1O	31.5
O=C(O)c1ncccc1O	208 to 212

SMILES	melting point [°C]
O=C1CCc2ccc(F)cc21	61 to 63
Cc1ccc([N+](=O)[O-])c(I)c1	18 to 20
Brc1ccc2[nH]ccc2c1	91
O=C(O)c1ccc(Oc2ccccn2)cc1	174 to 175
O=[N+]([O-])c1ccc(C(Br)C(Br)c2cccc3ccccc23)c([N+](=O)[O-])c1 (stereo unspecified)	161
O=C(O)c1cc(F)cc([N+](=O)[O-])c1	125
Nc1ncc(Cl)cc1Br	84
N#CCS(=O)(=O)c1ccc(Cl)cc1Cl	118 to 121
ON=C1C2CC3CC(C2)CC1C3	150 to 151
O=C(Nc1ccc(Cl)c(Cl)c1)c1cc(Cl)cc(Cl)c1O	162
Cc1ccc(Sc2ccc([N+](=O)[O-])cc2C=O)cc1	157 to 158
CC(C)(C)OC(=O)NO	57
OCCc1ccccc1	-27
O=C(NCCCl)c1ccccc1	103
CN1CCc2cc(O)c(O)cc2C1	255
OCC1OC(n2cnc3c(S)ncnc32)C(O)C1O (stereo unspecified)	218 to 221
O=P(O)(O)OC1C(O)C(O)C(O)C(O)C1O (stereo unspecified)	195
O=[N+]([O-])c1ccc(Nc2ccccc2)cc1	135
O=C1CCSc2ccc(F)cc21	94 to 95
CC(C)(C)OC(=O)N1CCN(Cc2ccc(C=O)cc2)CC1	57 to 59
Cc1ccc(NC(=O)CC(C)c2ccc(C)cc2)cc1 (stereo unspecified)	105

SMILES	melting point [°C]
Cc1cc(=O)oc2cc(O)ccc12	194
C[C@]12CCC(=O)C=C1C(=O)C[C@@H]1[C@@H]2CC[C@]2(C)C(=O)CC[C@@H]12	222
O=P1(NC2CCCCC2)Oc2ccccc2-c2ccccc2O1	160
N#Cc1ccc(S(=O)(=O)Cl)c(Cl)c1	103
Cc1ccc(Sc2ncccc2C(=O)Cl)cc1	102 to 104
Cc1cc(C(=O)NCCc2ccc(S(=O)(=O)NC(=O)NN3CCCCCC3)cc2)no1	189
C=C(C)C1CC=C(C(=O)O)CC1 (stereo unspecified)	129 to 135
COc1ccc(C/C(=N\O)C(=O)O)cc1	159
O=[N+]([O-])c1ccc(CBr)cc1	99
CC(=O)OCCOc1cc(OC(C)=O)c2c(=O)c(OC(C)=O)c(-c3ccc(OCCOC(C)=O)c(OCCOC(C)=O)c3)oc2c1	96 to 97
COc1ccc(-c2ccc(C=O)s2)cc1	118 to 119
Cc1ccc(S(=O)(=O)NN=Cc2ccccc2[N+](=O)[O-])cc1	153 to 156
O=C(O)C1Cc2cc3c(cc21)OCO3 (stereo unspecified)	150
CC(C)c1cc(Oc2ccccc2)cc(C(C)C)c1NC(=S)NC(C)(C)C	146
O=C(O)C1c2ccccc2C(=O)N(Cc2ccc(F)cc2)C1c1ccncc1 (stereo unspecified)	243 to 245
COc1cc(OC)c2c(=O)c(=O)c2c1	149
CN(C)c1nc2ccccc2cc1C=O	52 to 53
O=C(O)c1ccccc1CSc1ccccc1	109 to 113
Cn1ccnc1C(=O)O	104 to 106
